This note sets out measurements from patent US12343319B2, “Compositions and methods for treatment of diseases and disorders” (Atai Therapeutics Inc., priority 2023, dated 2025).

Molecules are shown by their SMILES.

A word on the EC50: it is the concentration that produces a half-maximal response. Higher therefore signals a need for much substance.

The target in the test is T1, 5-HT2A receptors in the mouse frontal cortex (Mus musculus, UniProt P35363).
T1 construct: Left frontal cortices from each animal were homogenized individually; from tissue
Put plainly: Ex vivo 5-HT2A receptor occupancy ([3H]cimbi-36) in mouse frontal cortex.

T1 sequence (P35363 whole entry): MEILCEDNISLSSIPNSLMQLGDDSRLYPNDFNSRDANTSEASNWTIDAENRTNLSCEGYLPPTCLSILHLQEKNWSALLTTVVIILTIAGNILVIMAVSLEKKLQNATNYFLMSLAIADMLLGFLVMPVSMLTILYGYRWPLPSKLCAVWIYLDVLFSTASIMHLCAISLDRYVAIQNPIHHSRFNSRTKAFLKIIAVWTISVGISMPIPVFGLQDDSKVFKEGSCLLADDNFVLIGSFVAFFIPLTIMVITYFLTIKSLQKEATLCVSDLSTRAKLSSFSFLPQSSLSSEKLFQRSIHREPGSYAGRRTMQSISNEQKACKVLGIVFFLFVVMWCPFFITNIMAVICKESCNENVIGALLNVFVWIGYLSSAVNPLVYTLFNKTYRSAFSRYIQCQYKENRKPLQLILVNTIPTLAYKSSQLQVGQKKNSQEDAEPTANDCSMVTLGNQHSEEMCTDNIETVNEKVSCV

As to `COc1ccc(OC)c(CCNCc2cc(C)cc(F)c2)c1` [Compound 2-2, 2-(2,5-dimethoxyphenyl)-N-(3-fluoro-5-methylbenzyl)ethan-1-amine], the EC50 is 1.93 µM. The “ex vivo occupancy of 5-HT2A receptors (RO)” value (across 1, 3, 10 mg/kg IP) is 21-60%. The “brain concentration at 50% 5-HT2A RO” value (in brain) worked out at 1608 ng/g. Besides, the receptor occupancy at 1 mg/kg (mouse, 1 mg/kg IP, 15 minutes post dosing, read-out: % Receptor Occupancy (RO)) came to 21%. In addition, where the note is “mouse, 1 mg/kg IP, 15 minutes post dosing, read-out: % of Control Binding”, the remaining activity at 1 mg/kg came out at 79%. Besides, the receptor occupancy at 3 mg/kg (mouse, 3 mg/kg IP, 15 minutes post dosing, read-out: % Receptor Occupancy (RO)) amounted to 37%. Besides, for the setting “mouse, 3 mg/kg IP, 15 minutes post dosing, read-out: % of Control Binding”, the remaining activity at 3 mg/kg is 63%. Moreover, the receptor occupancy at 10 mg/kg (mouse, 10 mg/kg IP, 15 minutes post dosing, read-out: % Receptor Occupancy (RO)) stood at 60%. Besides, the remaining activity at 10 mg/kg (mouse, 10 mg/kg IP, 15 minutes post dosing, read-out: % of Control Binding) turned out to be 40%. Moreover, the ED50 (mouse, IP, non-linear regression, read-out: dose at 50% 5-HT2A RO) worked out at 6.14 mg/kg.
